Measured values as given in BindingDB's records for doi:10.1016/j.bmcl.2005.08.106 (Astrazeneca, 2005).

Experiment: Inhibition of Src-transfected 3T3 cell proliferation

Row | SMILES | IC50 [nM]
1 | COc1cnc(Cl)c(Nc2ncnc3cc(OCCN4CCN(C(C)=O)CC4)cc(OC(C)C)c23)n1 [1-(4-(2-(4-(3-chloro-6-methoxypyrazin-2-ylamino)-5-isopropoxyquinazolin-7-yloxy)ethyl)piperazin-1-yl)ethanone] | 70
2 | COc1ccc(Cl)c(Nc2ncnc3cc(OCCN4CCN(C(C)=O)CC4)cc(OC(C)C)c23)n1 [1-(4-(2-(4-(3-chloro-6-methoxypyridin-2-ylamino)-5-isopropoxyquinazolin-7-yloxy)ethyl)piperazin-1-yl)ethanone] | 60
3 | COc1ccc(Cl)c(Nc2ncnc3cc(OCCCN4CCN(C(C)=O)CC4)cc(OC(C)C)c23)n1 [1-(4-(3-(4-(3-chloro-6-methoxypyridin-2-ylamino)-5-isopropoxyquinazolin-7-yloxy)propyl)piperazin-1-yl)ethanone] | 20
4 | COc1ccc(Cl)c(Nc2ncnc3cc(OCCCN4CCOCC4)cc(OC(C)C)c23)c1 [N-(2-chloro-5-methoxyphenyl)-7-[3-(morpholin-4-yl)propoxy]-5-(propan-2-yloxy)quinazolin-4-amine] | 150
5 | COc1cnc(Cl)c(Nc2ncnc3cc(OCCCN4CCOCC4)cc(OC(C)C)c23)c1 [N-(2-chloro-5-methoxypyridin-3-yl)-5-isopropoxy-7-(3-morpholinopropoxy)quinazolin-4-amine] | 150
6 | COc1cnc(Cl)c(Nc2ncnc3cc(OCCCN4CCOCC4)cc(OC4CCOCC4)c23)c1 [N-(2-chloro-5-methoxypyridin-3-yl)-7-(3-morpholinopropoxy)-5-(tetrahydro-2H-pyran-4-yloxy)quinazolin-4-amine] | 140
7 | COc1ccc(Cl)c(Nc2ncnc3cc(OCCN4CCCC4)cc(OC(C)C)c23)n1 [N-(3-chloro-6-methoxypyridin-2-yl)-5-isopropoxy-7-(2-(pyrrolidin-1-yl)ethoxy)quinazolin-4-amine] | 120
8 | COc1ccc(Cl)c(Nc2ncnc3cc(OCCN4CCOCC4)cc(OC(C)C)c23)n1 [N-(3-chloro-6-methoxypyridin-2-yl)-5-isopropoxy-7-(2-morpholinoethoxy)quinazolin-4-amine] | 120
9 | COc1ccc(Cl)c(Nc2ncnc3cc(OCCCN4CCN(C)CC4)cc(OC(C)C)c23)n1 [N-(3-chloro-6-methoxypyridin-2-yl)-5-isopropoxy-7-(3-(4-methylpiperazin-1-yl)propoxy)quinazolin-4-amine] | 60
10 | COc1ccc(Cl)c(Nc2ncnc3cc(OCCCN4CCCC4)cc(OC(C)C)c23)n1 [N-(3-chloro-6-methoxypyridin-2-yl)-5-isopropoxy-7-(3-(pyrrolidin-1-yl)propoxy)quinazolin-4-amine] | 70
11 | COc1ccc(Cl)c(Nc2ncnc3cc(OCCCN4CCOCC4)cc(OC(C)C)c23)n1 [N-(3-chloro-6-methoxypyridin-2-yl)-5-isopropoxy-7-(3-morpholinopropoxy)quinazolin-4-amine] | 30
12 | COc1ccc(Cl)c(Nc2ncnc3cc(OCCCN4CCOCC4)cc(OC4CCOCC4)c23)n1 [N-(3-chloro-6-methoxypyridin-2-yl)-7-(3-morpholinopropoxy)-5-(tetrahydro-2H-pyran-4-yloxy)quinazolin-4-amine] | 70
13 | COc1cc(Nc2ncnc3cc(OCCCN4CCOCC4)cc(OC(C)C)c23)c(Cl)cn1 [N-(5-chloro-2-methoxypyridin-4-yl)-5-isopropoxy-7-(3-morpholinopropoxy)quinazolin-4-amine] | 350
